Test results reported in BindingDB's records for doi:10.1021/jm00129a030 (Takeda Chemical Industries, 1989).

Molecular target: Thromboxane A2 receptor (Cavia porcellus)
Assay: In vitro concentration that reduced specific binding of [3H][…] to guinea pig platelet receptor, Thromboxane A2 receptor by 50%

Question: Which IC50 does the source give for `CCCCC[C@H](O)/C=C/[C@@H]1[C@@H](C/C=C\CCCC(=O)O)[C@H]2CO[C@@H]1C2` [(Z)-7-((1R,4S,5S,6R)-6-((S,E)-3-hydroxyoct-1-enyl)-2-oxabicyclo[2.2.1]heptan-5-yl)hept-5-enoic acid] here?
Answer: 31 nM
